The source of these data is patent US20230242530A1, “8-(AZETIDIN-1-YL)-[1,2,4]TRIAZOLO[1,5-A]PYRIDINYL COMPOUNDS, COMPOSITIONS AND METHODS OF USE THEREOF” (Genentech, Inc., priority 2016, published 2023).

The test system of assay [1] is JAK1-dependent STAT6 phosphorylation downstream of IL-13 stimulation in BEAS-2B cells. Nature of the assay: JAK1 pathway assay in cell lines: IL-13 p-STAT6 BEAS-2B. It counts as cell-based. The following applies: BEAS-2B human bronchial epithelial cells, 1 hr compound, IL-13 15 min, MSD readout. The gist of the method:
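Phospho-STAT6 read by MSD electrochemiluminescence in lysates of BEAS-2B cells kept in complete growth medium. Cells were pretreated 1 hr at 37 °C with compound (0.2% DMSO final) and stimulated 15 min with IL-13 at its EC90; EC50 is the concentration halving signal versus DMSO.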

Assay [2] has as its target T1, isolated recombinant JAK2 kinase domain (Homo sapiens, UniProt O60674).
T1 construct: isolated recombinant JAK1 and JAK2 kinase domain
Kind of assay: JAK enzyme assay, JAK2 kinase domain (Caliper LabChip). It counts as biochemical. The following applies: 0.2 nM JAK2, ATP 25 μM, Morrison tight binding model. The gist of the method: (§1)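 Ki values were obtained by Morrison tight-binding analysis with ATP-competitive correction, Ki=Ki,app/(1+[ATP]/Km,app). Phosphorylated versus total fluorescent JAK3-derived peptide was quantified on a Caliper LabChip. Kinase reactions with the isolated recombinant domains ran 30 min at 22 °C before EDTA quench (50 mM final).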

Assay [3] addresses T2, isolated recombinant JAK1 kinase domain (Homo sapiens, UniProt P23458).
T2 construct: isolated recombinant JAK1 and JAK2 kinase domain
Nature of the assay: JAK enzyme assay, JAK1 kinase domain (Caliper LabChip). It counts as biochemical. The following applies: 1.5 nM JAK1, ATP 25 μM, Morrison tight binding model. The essentials: as §1

T2 sequence (P23458 875-1153 limits assumed): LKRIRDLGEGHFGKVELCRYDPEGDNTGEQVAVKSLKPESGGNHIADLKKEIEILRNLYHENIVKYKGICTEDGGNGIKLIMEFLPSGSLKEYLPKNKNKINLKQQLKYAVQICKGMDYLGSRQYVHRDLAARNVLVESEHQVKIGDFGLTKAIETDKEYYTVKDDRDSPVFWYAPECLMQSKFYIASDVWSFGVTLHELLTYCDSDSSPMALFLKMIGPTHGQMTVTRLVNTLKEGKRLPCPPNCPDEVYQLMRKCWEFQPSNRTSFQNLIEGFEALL
T1 sequence (O60674 849-1124 limits assumed): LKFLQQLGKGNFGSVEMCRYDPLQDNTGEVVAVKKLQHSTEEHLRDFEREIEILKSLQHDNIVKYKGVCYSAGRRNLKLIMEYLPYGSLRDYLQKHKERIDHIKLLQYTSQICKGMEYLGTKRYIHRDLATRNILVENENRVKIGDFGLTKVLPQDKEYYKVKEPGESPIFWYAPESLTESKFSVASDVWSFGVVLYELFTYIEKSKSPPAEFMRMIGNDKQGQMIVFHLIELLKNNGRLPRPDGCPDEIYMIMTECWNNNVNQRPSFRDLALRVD

As a reminder, the EC50 is the concentration that produces a half-maximal response. The low end stands for greater potency, the high end for weaker potency. For orientation: Ki means a measure of affinity in units of concentration, obtained from inhibition or displacement. Regarding `CN1CCN(C(=O)Cn2cc(Nc3nc4c(N5CC(CC#N)(c6ccccc6)C5)cccn4n3)cn2)CC1` [Example 101], in assay [1], the midpoint of the response, the EC50, lay at 16 nM. Also, the Ki in assay [2] was 0.2 nM; in assay [3], 0.3 nM.

Take `CN1CCN(C(=O)Cn2cc(Nc3nc4c(N5CC(CC#N)(n6cc(C7CCCC7)cn6)C5)cccn4n3)cn2)CC1` [Example 49, 2-[3-(4-cyclopentylpyrazol-1-yl)-1-[2-[[1-[2-(4-methylpiperazin-1-yl)-2-oxo-ethyl]pyrazol-4-yl]amino]-[1,2,4]triazolo[1,5-a]pyridin-8-yl]azetidin-3-yl]acetonitrile]: in assay [1], the midpoint of the response, the EC50, lay at 30 nM. Further, the Ki in assay [2] is 2.4 nM; in assay [3] it was 0.6 nM.

Take `N#CCC1(n2cc(C(F)(F)F)cn2)CN(c2cccn3nc(Nc4ccc(C(=O)N5CCN(C6COC6)CC5)cc4)nc23)C1` [Example 103, 2-[1-[2-[4-[4-(oxetan-3-yl)piperazine-1-carbonyl]anilino]-[1,2,4]triazolo[1,5-a]pyridin-8-yl]-3-[4-(trifluoromethyl)pyrazol-1-yl]azetidin-3-yl]acetonitrile]: it took 33 nM to reach a half-maximal effect in assay [1] (EC50). Moreover, the Ki in assay [2] is 1.7 nM; in assay [3], 0.3 nM.

In assay [1], `CCc1cnn(C2(CC#N)CN(c3cccn4nc(Nc5cnn(CC(=O)N6CCC(CN7CCN(C(=O)OC)CC7)CC6)c5)nc34)C2)c1` [Example 39, methyl4-[[1-[2-[4-[[8-[3-(cyanomethyl)-3-(4-ethylpyrazol-1-yl)azetidin-1-yl]-[1,2,4]triazolo[1,5-a]pyridin-2-yl]amino]pyrazol-1-yl]acetyl]-4-piperidyl]methyl]piperazine-1-carboxylate] displayed an EC50 of 24 nM. The Ki was 1.6 nM in assay [2] and 0.3 nM in assay [3].

Turning to `CN1CCN(C(=O)Cn2cc(Nc3nc4c(N5CC(CC#N)(n6cc(CCc7ccccc7)cn6)C5)cccn4n3)cn2)CC1` [Example 59, 2-[1-[2-[[1-[2-(4-methylpiperazin-1-yl)-2-oxo-ethyl]pyrazol-4-yl]amino]-[1,2,4]triazolo[1,5-a]pyridin-8-yl]-3-[4-(2-phenylethyl)pyrazol-1-yl]azetidin-3-yl]acetonitrile], in assay [1], the EC50 was determined as 8 nM. Also, the Ki in assay [2] and in assay [3] was 0.2 nM each time.

As to `CCc1cnn(C2(CC#N)CN(c3cccn4nc(Nc5cnn(CC(=O)N(C)C)c5)nc34)C2)c1` [Example 143, 2-[4-[[8-[3-(cyanomethyl)-3-(4-ethylpyrazol-1-yl)azetidin-1-yl]-[1,2,4]triazolo[1,5-a]pyridin-2-yl]amino]pyrazol-1-yl]-N,N-dimethyl-acetamide], the response in assay [1] was half-maximal at 31 nM (EC50). The Ki in assay [2] came out at 1.7 nM; in assay [3] it was 0.6 nM.

Take `CCc1cnn(C2(CC#N)CN(c3cccn4nc(Nc5ccc(C(=O)N6CCN(C7CCOCC7)CC6)cc5)nc34)C2)c1` [Example 37, 2-[3-(4-ethylpyrazol-1-yl)-1-[2-[4-(4-tetrahydropyran-4-ylpiperazine-1-carbonyl)anilino]-[1,2,4]triazolo[1,5-a]pyridin-8-yl]azetidin-3-yl]acetonitrile]: in assay [1], the EC50 is 23 nM. Besides, the Ki in assay [2] is 2.9 nM; in assay [3] it was 0.5 nM.

`N#CCC1(n2cc(C(F)(F)F)cn2)CN(c2cccn3nc(Nc4cnn(CC(=O)N5CCN(C6COC6)CC5)c4)nc23)C1` [Example 97, 2-[1-[2-[[1-[2-[4-(oxetan-3-yl)piperazin-1-yl]-2-oxo-ethyl]pyrazol-4-yl]amino]-[1,2,4]triazolo[1,5-a]pyridin-8-yl]-3-[4-(trifluoromethyl)pyrazol-1-yl]azetidin-3-yl]acetonitrile] yielded an EC50 in assay [1] of 51 nM. Moreover, the Ki in assay [2] was 0.8 nM; in assay [3], 0.5 nM.

Regarding `CCc1cnn(C2(CC#N)CN(c3cccn4nc(Nc5ccc(C(=O)N6CCN(C)CC6)c(F)c5)nc34)C2)c1` [Example 91, 2-[3-(4-ethylpyrazol-1-yl)-1-[2-[3-fluoro-4-(4-methylpiperazine-1-carbonyl)anilino]-[1,2,4]triazolo[1,5-a]pyridin-8-yl]azetidin-3-yl]acetonitrile], in assay [1], the EC50 worked out at 213 nM. Moreover, the inhibition constant Ki in assay [2] turned out to be 0.9 nM; in assay [3], 0.4 nM.

Consider `CN1CCN(C(=O)Cn2cc(Nc3nc4c(N5CC(CC#N)(n6cc(CNCC(F)(F)F)cn6)C5)cccn4n3)cn2)CC1` [Example 48], for which, in assay [1], the half-maximal effective concentration (EC50) is 33 nM. Moreover, the figures for the Ki in assay [2] and in assay [3] were 1.5 nM and 0.5 nM, respectively.

With `CCc1cnn(C2(CC#N)CN(c3cccn4nc(Nc5ccc(C(=O)NCCCN6CCOCC6)cc5)nc34)C2)c1` [Example 67, 4-[[8-[3-(cyanomethyl)-3-(4-ethylpyrazol-1-yl)azetidin-1-yl]-[1,2,4]triazolo[1,5-a]pyridin-2-yl]amino]-N-(3-morpholinopropyl)benzamide], in assay [1], the midpoint of the response, the EC50, lay at 167 nM. The inhibition constant (Ki) in assay [2] stood at 1.1 nM; in assay [3], 0.5 nM.

On to `CN1CCN(C(=O)Cn2cc(Nc3nc4c(N5CC(CC#N)(n6cc(CCF)cn6)C5)cccn4n3)cn2)CC1` [Example 40, 2-[3-[4-(2-fluoroethyl)pyrazol-1-yl]-1-[2-[[1-[2-(4-methylpiperazin-1-yl)-2-oxo-ethyl]pyrazol-4-yl]amino]-[1,2,4]triazolo[1,5-a]pyridin-8-yl]azetidin-3-yl]acetonitrile], for which the concentration giving a half-maximal response (EC50) in assay [1] came out at 18 nM. In addition, the Ki in assay [2] was 0.2 nM; in assay [3], 0.3 nM.

As to `CCc1cnn(C2(CC#N)CN(c3cccn4nc(Nc5cnn(CC(=O)N6CCC(N7CCOCC7)CC6)c5)nc34)C2)c1` [Example 29, 2-[3-(4-ethylpyrazol-1-yl)-1-[2-[[1-[2-(4-morpholino-1-piperidyl)-2-oxo-ethyl]pyrazol-4-yl]amino]-[1,2,4]triazolo[1,5-a]pyridin-8-yl]azetidin-3-yl]acetonitrile], in assay [1], it took 78 nM to reach a half-maximal effect (EC50). Besides, the figures for the Ki in assay [2] and in assay [3] were 2.1 nM and 0.6 nM, respectively.

Compound `CCc1cnn(C2(CC#N)CN(c3cccn4nc(Nc5ccc6c(c5)CCN(C5COC5)C6)nc34)C2)c1` [Example 51, 2-[3-(4-ethylpyrazol-1-yl)-1-[2-[[2-(oxetan-3-yl)-3,4-dihydro-1H-isoquinolin-6-yl]amino]-[1,2,4]triazolo[1,5-a]pyridin-8-yl]azetidin-3-yl]acetonitrile] came in with an EC50 in assay [1] of 44 nM. Further, the Ki in assay [2] is 1.6 nM; in assay [3], 0.3 nM.

Consider `CCc1cnn(C2(CC#N)CN(c3cccn4nc(Nc5ccc6c(c5)CCN(C5CCOCC5)C6)nc34)C2)c1` [Example 57, 2-[3-(4-ethylpyrazol-1-yl)-1-[2-[(2-tetrahydropyran-4-yl-3,4-dihydro-1H-isoquinolin-6-yl)amino]-[1,2,4]triazolo[1,5-a]pyridin-8-yl]azetidin-3-yl]acetonitrile], for which it took 12 nM to reach a half-maximal effect in assay [1] (EC50). Besides, the figures for the Ki in assay [2] and in assay [3] were 1.3 nM and 0.3 nM, respectively.

As to `COCCN1CCN(C(=O)Cn2cc(Nc3nc4c(N5CC(CC#N)(n6cc(C(F)(F)F)cn6)C5)cccn4n3)cn2)CC1` [Example 94], the EC50 in assay [1] is 54 nM. In addition, the values for the Ki in assay [2] and in assay [3] were 1 nM and 0.3 nM, respectively.

In assay [1], `CCc1cnn(C2(CC#N)CN(c3cccn4nc(Nc5cnn(CC(=O)N6CCC(CN7CCN(C)CC7)CC6)c5)nc34)C2)c1` [Example 47] registered an EC50 of 11 nM. Besides, the inhibition constant Ki is 0.2 nM in assay [2] and 0.4 nM in assay [3].

With `CCc1cnn(C2(CC#N)CN(c3cccn4nc(Nc5ccc(C(=O)N6CC(C(=O)N7CCN(C)CC7)C6)cc5)nc34)C2)c1` [Example 65, 2-[3-(4-ethylpyrazol-1-yl)-1-[2-[4-[3-(4-methylpiperazine-1-carbonyl)azetidine-1-carbonyl]anilino]-[1,2,4]triazolo[1,5-a]pyridin-8-yl]azetidin-3-yl]acetonitrile], it took 86 nM to reach a half-maximal effect in assay [1] (EC50). Further, the Ki in assay [2] was found to be 1.3 nM; in assay [3] it was 0.5 nM.

On to `Cc1ccccc1-c1cnn(C2(CC#N)CN(c3cccn4nc(Nc5cnn(CC(=O)N6CCC(N(C)C7COC7)CC6)c5)nc34)C2)c1` [Example 124], for which the response in assay [1] was half-maximal at 85 nM (EC50). For the same compound, the Ki in assay [2] was 3.8 nM; in assay [3] it was 2 nM.

In the case of `CCc1cnn(C2(CC#N)CN(c3cccn4nc(Nc5ccc(C(=O)N6CCN(C)CC6)c(C)c5)nc34)C2)c1` [Example 92, 2-[3-(4-ethylpyrazol-1-yl)-1-[2-[3-methyl-4-(4-methylpiperazine-1-carbonyl)anilino]-[1,2,4]triazolo[1,5-a]pyridin-8-yl]azetidin-3-yl]acetonitrile], in assay [1], the EC50 is 19 nM. For the same compound, the Ki was determined as 1.7 nM in assay [2] and 0.4 nM in assay [3].

Turning to `CCc1cnn(C2(CC#N)CN(c3cccn4nc(Nc5ccc(CC(=O)N6CCN(C)CC6)nc5)nc34)C2)c1` [Example 74], in assay [1], the 50% effective concentration (EC50) was determined as 20 nM. Besides, the Ki in assay [2] was 1.8 nM; in assay [3], 0.4 nM.

Compound `N#CCC1(n2cc(CCF)cn2)CN(c2cccn3nc(Nc4cn[nH]c4)nc23)C1` [Example 149, 2-[3-[4-(2-fluoroethyl)pyrazol-1-yl]-1-[2-(1H-pyrazol-4-ylamino)-[1,2,4]triazolo[1,5-a]pyridin-8-yl]azetidin-3-yl]acetonitrile] came in with an EC50 in assay [1] of 21 nM. Besides, the Ki in assay [2] came to 0.6 nM; in assay [3], 0.3 nM.
